In ChEMBL document CHEMBL4340507, “Identification of an indol-based multi-target kinase inhibitor through phenotype screening and target fishing using inverse virtual screening approach” (Eur J Med Chem, 2019):
Active and inactive are the calls of the source. No cut-off for these calls is given here.

How the values were obtained:
[1] = target: Vascular endothelial growth factor receptor 2 (Homo sapiens, UniProt P35968); experiment: Inhibition of recombinant human N-terminal GST-fused VEGFR2 C-terminal domain (D807 to V1356 residues) expressed in Sf9 insect cells using Poly(Glu:Tyr)4:1 as substrate measured after 60 mins in presence of [gamma-33P]-ATP by scintillation counting method
[2] = target: High affinity nerve growth factor receptor (Homo sapiens, UniProt P04629); experiment: Inhibition of recombinant human wild-type N-terminal GST-His6-fused TRKA C-terminal domain (G443 to G796 residues) expressed in Sf9 insect cells using TRK-C derived peptide as substrate measured after 60 mins in presence of [gamma-33P]-ATP by scintillation counting method
HeLa [3] = experiment: Induction of apoptosis in human HeLa cells assessed as increase in caspase 3 level at 0.1 to 0.6 uM after 24 hrs by FACS analysis; type: functional, cell-based
[4] = target: Dual specificity mitogen-activated protein kinase kinase 2 (Homo sapiens, UniProt P36507); experiment: Inhibition of recombinant human MEK2 measured after 60 mins in presence of [gamma-33P]-ATP by scintillation counting method
IEC-6 [5] = experiment: Cytotoxicity against rat IEC-6 cells assessed as reduction in cell viability measured after 24 to 72 hrs by MTT assay; type: cell-based; settings: Rattus norvegicus, IEC-6
IEC-6 [6] = experiment: Cell cycle arrest in rat IEC-6 cells assessed as decrease in accumulation at G2-phase at 0.1 to 0.6 uM after 24 hrs by propidium iodide staining-based FACS analysis; type: ADME; settings: iec-6, 24 h
[7] = target: Tyrosine-protein kinase ABL1 (Homo sapiens, UniProt P00519); experiment: Inhibition of recombinant human wild-type N-terminal GST-His6-fused ABL1 internal domain (P118 to S535 residues) expressed in Sf9 insect cells using Poly(Ala,Glu,Lys,Tyr)6:2:5:1 as substrate measured after 60 mins in presence of [gamma-33P]-ATP by scintillation counting method
PC-3 = experiment: Antiproliferative activity against human PC3 cells assessed as decrease in cell viability measured after 72 hrs by MTT assay; type: functional, cell-based; settings: PC-3, 72 h
HeLa [8] = experiment: Antiproliferative activity against human HeLa cells assessed as decrease in cell viability measured after 72 hrs by MTT assay; type: functional, cell-based
[9] = target: Mitogen-activated protein kinase 3 (Homo sapiens, UniProt P27361); experiment: Inhibition of recombinant human full-length N-terminal GST-His6 fused ERK1 (M1 to P379 residues) expressed in Escherichia coli using RBER-CHKtide as substrate measured after 60 mins in presence of [gamma-33P]-ATP by scintillation counting method
[10] = target: RAC-beta serine/threonine-protein kinase (Homo sapiens, UniProt P31751); experiment: Inhibition of recombinant human full-length N-terminal GST-His6-fused AKT2 (M1 to E481 residues) expressed in Sf9 insect cells using GSK3-derived peptide as substrate measured after 60 mins in presence of [gamma-33P]-ATP by scintillation counting method
[11] = target: Receptor tyrosine-protein kinase erbB-2 (Homo sapiens, UniProt P04626); experiment: Inhibition of recombinant human wild-type N-terminal GST-His6-fused ERBB2 C-terminal domain (Q679 to V1255 residues) expressed in Sf9 insect cells using Poly(Glu:Tyr)4:1 as substrate measured after 60 mins in presence of [gamma-33P]-ATP by scintillation counting method
Receptor tyrosine-protein kinase erbB-2, sequence (P04626 whole entry, the tested form may be a part): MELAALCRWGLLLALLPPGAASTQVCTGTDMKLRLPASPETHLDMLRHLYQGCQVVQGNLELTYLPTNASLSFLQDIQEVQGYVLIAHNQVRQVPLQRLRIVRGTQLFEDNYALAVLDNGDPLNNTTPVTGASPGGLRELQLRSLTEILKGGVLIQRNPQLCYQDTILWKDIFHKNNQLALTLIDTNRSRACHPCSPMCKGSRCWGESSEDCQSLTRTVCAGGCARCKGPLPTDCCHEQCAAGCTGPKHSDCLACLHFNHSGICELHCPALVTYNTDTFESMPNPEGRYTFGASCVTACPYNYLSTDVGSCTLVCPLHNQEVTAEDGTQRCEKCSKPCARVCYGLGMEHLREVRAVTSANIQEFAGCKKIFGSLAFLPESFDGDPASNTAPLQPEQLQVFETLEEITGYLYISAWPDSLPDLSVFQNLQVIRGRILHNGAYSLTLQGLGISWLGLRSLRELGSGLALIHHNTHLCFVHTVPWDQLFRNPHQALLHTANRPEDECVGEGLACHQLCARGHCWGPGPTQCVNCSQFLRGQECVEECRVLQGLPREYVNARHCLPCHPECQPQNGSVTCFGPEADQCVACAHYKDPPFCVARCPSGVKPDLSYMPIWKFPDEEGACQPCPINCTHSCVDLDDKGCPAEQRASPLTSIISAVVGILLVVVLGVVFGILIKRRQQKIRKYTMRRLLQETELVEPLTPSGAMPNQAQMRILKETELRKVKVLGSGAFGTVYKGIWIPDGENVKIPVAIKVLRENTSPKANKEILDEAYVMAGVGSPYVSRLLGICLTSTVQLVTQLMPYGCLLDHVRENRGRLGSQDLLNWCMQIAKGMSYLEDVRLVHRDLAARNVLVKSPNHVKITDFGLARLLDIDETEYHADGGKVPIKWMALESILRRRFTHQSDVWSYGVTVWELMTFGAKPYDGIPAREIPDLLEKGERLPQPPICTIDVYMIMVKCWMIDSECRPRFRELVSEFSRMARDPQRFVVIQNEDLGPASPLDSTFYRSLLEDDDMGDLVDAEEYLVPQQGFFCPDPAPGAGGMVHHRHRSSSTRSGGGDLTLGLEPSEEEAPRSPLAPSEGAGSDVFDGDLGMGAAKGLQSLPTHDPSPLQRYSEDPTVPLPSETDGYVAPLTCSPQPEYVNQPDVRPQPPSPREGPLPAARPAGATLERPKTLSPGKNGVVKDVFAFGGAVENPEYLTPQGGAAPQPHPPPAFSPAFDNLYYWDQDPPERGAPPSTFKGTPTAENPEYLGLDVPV

Tyrosine-protein kinase ABL1, sequence (P00519 whole entry, the tested form may be a part): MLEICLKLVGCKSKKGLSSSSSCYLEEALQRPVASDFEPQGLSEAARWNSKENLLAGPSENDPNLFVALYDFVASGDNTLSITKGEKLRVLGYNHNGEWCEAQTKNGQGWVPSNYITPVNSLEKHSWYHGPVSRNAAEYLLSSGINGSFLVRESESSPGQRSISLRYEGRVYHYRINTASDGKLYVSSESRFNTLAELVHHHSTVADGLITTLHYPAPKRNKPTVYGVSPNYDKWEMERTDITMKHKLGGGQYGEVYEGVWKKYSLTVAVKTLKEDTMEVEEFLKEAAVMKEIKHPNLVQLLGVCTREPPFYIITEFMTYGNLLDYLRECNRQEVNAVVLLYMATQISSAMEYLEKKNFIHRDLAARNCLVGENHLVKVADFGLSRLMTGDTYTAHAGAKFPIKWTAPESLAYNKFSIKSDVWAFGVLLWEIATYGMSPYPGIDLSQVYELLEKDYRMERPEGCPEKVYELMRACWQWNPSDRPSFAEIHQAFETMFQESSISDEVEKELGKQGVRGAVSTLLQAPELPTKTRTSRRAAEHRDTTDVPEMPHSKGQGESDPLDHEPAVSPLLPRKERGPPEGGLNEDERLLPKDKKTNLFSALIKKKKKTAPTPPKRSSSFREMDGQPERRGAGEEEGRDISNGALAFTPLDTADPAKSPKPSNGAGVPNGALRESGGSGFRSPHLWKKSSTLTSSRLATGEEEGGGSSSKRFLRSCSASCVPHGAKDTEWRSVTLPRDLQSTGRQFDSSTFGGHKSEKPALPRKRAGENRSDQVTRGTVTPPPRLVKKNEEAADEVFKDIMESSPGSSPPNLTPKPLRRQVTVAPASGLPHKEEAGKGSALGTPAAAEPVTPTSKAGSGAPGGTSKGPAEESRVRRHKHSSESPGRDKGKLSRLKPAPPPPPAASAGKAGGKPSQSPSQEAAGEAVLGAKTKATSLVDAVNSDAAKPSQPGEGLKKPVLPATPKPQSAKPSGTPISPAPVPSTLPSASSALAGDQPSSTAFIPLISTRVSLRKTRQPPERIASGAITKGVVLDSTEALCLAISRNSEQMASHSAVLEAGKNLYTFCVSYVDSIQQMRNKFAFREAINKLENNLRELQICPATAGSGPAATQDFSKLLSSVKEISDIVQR
Mitogen-activated protein kinase 3, sequence (P27361 whole entry, the tested form may be a part): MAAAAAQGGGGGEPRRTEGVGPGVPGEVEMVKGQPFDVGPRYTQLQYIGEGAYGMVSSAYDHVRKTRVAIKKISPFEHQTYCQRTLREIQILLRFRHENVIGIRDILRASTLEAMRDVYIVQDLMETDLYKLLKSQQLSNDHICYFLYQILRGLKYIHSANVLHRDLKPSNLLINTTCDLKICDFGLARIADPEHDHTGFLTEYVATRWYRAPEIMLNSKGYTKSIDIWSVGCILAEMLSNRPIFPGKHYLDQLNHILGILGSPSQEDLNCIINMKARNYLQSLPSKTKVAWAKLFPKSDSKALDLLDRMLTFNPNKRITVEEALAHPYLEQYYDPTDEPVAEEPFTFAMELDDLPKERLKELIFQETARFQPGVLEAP
Vascular endothelial growth factor receptor 2, sequence (P35968 whole entry, the tested form may be a part): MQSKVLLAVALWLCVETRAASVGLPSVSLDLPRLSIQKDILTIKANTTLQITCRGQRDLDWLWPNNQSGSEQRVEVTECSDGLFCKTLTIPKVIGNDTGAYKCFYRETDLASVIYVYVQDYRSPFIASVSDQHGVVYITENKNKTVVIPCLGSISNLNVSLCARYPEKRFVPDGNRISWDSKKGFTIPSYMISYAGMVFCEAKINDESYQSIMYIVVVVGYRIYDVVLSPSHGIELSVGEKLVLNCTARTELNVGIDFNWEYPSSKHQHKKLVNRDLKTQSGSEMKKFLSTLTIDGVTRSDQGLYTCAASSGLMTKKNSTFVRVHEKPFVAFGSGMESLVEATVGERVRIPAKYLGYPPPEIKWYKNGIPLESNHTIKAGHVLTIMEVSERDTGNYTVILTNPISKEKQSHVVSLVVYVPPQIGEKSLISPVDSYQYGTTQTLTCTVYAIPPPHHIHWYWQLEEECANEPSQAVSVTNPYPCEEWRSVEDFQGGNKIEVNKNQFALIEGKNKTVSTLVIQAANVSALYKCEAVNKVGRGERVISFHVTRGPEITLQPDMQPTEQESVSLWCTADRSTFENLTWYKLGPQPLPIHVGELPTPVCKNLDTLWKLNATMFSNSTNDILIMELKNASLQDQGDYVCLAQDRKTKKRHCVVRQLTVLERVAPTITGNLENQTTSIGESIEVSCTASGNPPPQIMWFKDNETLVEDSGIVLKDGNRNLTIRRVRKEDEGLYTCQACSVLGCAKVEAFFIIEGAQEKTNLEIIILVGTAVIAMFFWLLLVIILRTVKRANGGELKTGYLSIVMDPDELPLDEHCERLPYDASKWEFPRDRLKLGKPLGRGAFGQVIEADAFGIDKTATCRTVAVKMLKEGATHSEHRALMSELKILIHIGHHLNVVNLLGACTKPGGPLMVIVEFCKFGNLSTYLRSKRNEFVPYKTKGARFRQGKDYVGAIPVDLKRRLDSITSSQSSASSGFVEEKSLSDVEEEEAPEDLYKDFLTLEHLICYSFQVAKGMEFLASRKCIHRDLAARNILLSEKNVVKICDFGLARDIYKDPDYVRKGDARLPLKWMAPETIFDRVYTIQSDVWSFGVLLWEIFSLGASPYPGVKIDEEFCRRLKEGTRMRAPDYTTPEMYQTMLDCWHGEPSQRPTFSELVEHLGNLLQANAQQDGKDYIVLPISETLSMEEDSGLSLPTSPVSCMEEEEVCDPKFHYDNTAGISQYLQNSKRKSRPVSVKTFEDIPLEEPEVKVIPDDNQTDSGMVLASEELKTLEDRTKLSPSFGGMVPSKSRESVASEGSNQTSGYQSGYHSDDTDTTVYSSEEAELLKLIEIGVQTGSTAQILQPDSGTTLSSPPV
Dual specificity mitogen-activated protein kinase kinase 2, sequence (P36507 whole entry): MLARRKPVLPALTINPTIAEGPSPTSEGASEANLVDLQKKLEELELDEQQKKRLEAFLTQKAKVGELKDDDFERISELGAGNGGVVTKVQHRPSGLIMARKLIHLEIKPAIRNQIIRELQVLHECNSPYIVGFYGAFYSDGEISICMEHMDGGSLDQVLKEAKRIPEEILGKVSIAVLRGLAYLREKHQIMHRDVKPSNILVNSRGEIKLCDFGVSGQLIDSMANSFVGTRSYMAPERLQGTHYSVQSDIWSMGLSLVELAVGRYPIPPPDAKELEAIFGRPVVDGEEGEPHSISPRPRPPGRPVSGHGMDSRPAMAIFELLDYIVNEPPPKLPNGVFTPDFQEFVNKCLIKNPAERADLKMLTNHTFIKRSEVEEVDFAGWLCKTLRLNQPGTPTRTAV
RAC-beta serine/threonine-protein kinase, sequence (P31751 whole entry, the tested form may be a part): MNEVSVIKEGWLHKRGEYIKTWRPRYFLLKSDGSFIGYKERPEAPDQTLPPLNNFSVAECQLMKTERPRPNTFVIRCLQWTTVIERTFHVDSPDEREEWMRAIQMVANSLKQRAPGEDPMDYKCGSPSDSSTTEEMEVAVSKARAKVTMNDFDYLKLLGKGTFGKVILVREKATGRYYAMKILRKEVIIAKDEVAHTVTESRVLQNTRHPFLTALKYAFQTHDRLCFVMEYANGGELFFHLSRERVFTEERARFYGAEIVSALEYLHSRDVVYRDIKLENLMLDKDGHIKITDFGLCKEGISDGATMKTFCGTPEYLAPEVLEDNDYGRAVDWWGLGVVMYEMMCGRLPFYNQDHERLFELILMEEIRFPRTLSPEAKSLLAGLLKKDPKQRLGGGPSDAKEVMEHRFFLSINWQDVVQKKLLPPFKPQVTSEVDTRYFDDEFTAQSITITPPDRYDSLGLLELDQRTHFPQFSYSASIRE

IC50 [1]: 31 µM
IC50 [2]: 16 µM
IC50 [4]: 74 µM
IC50 [7]: 69 µM
IC50 (PC-3): 16.9 µM
IC50 (HeLa [8]): 330 nM
IC50 [9]: 65 µM
IC50 [10]: > 100 µM
IC50 [11]: 24 µM
SMILES: CN(CCc1ccc(-c2ccccc2)cc1)Cc1cn(C)c2ccc(C(=O)Nc3ccc(F)cc3)cc12
Activity (HeLa [3]): Active
IC50 (IEC-6 [5]): 6.43 µM
Activity (IEC-6 [6]): Toxic
